This note sets out measurements from US12655394B2, “Ovarian cancer organoid culture” (MAX-PLANCK-GESELLSCHAFT ZUR FÖRDERUNG DER WISSENSCHAFTEN …, priority 2018, dated 2026).

Entries after “also recorded” stand apart in the source; their conditions may differ.

Assay [1] deals with organoid cell lines ORG1 and ORG2. Kind of assay: Carboplatin treatment of organoid cancer lines, cell viability by luminescence (Cell Titer Glow 3D). Conditions: patient-derived HGSC organoid lines, triplicates, FIG. 5. The format is cell-based, human. As to the method:
Cell vialiability (y axis) was determined proportional to the strength of luminiscence signal (Cell Titer® Glow 3D Promega). […] Immunofluorescence analysis of the key structural and functional biomarkers confirmed that organoids match native tumor tissue in phenotype, e.g. PAX8 confirming Mullerean lineage, EpCAM, p53 and p16 (FIG. 4). All tested organoid cultures were matched in phenotype to the fragment of native tumor processed and stained in standard procedure which was used for clinical diagnosis. Ovarian cancer cancer organoids mostly lack central cavities in contrast to fallopian tube organoids which are built of polarized epithelial monolayers. This is expected as histological atypia and stratification are present already in the early stages of the carcinogenesis in the fallopian tube (Shaw et al 2009, Modern Pathology 22, 1135-1138). Panel sequencing of paired organoid culture and tissue confirmed that the tested organoids recapitulate cancer tissue composition also on the genomic level. Importantly cultures can be expanded to multi-well format to enable high throughput experimental set up.
(In general: In ATP-based viability assays light output follows the ATP content of the culture.)

The subject of assay [2] is ovarian cancer stem cells. Kind of assay: Establishment of ovarian cancer organoid lines with exogenous Wnt 3a supplementation. The class given is cell-based, human. Conditions: all established lines grew in Wnt3a-negative media. As to the method:
• Adv. +++: Advanced F12 Medium+HEPES (6 ml)+Glutamax (5 ml)+5% fetal calf serum (FCS) • Adv. ++: Advanced F12 Medium+HEPES (6 ml)+Glutamax (5 ml) • Cut tissue with a scissor in small pieces and then mince further with scalpel for 3-5 minutes • Collect all fragments, incubate with 2 ml Collagenase Type 1+2 ml Collagenase type II and transfer to a 6 well plate, • Incubate fragments for 45 min at 37° C. 5% CO2, • Add 5 ml Adv +++ and transfer in to a 50 ml Falcon tube, • Vortex vigorously for 30 seconds, • Let pieces settle down, take supernatant and transfer in to a fresh tube, • Add again 5 ml Adv +++, mix with a pipette, • Let pieces settle down, take supernatant and transfer in to a fresh tube, • Centrifuge for 5 min at 400 rpm, • Discard supernatant, • Prepare 10 ml Adv +++, add 30 μl Y-27632 and 10 μl hEGF (final conc. 10 ng/ml), • Resuspend cell pellet in medium, • Seed cell in a flask, • Incubate at 5% CO2 at 37° C. and grow cells 3-5 days prior to transfer to 3D culture. […]

In the case of `N.N.O=C([O-])C1(C(=O)[O-])CCC1.[Pt+2]` [carboplatin], the “response to carboplatin treatment (cell viability)” value in assay [1] is “differences in responsivness and kinetics; also recorded: individual patient profiles in their response”.

B1: Wnt 3a: Wnt protein, e.g. human Wnt 3a (RefSeq NP_149122) (protein, UniProt P56704 19-352, looked up)
Protein Wnt-3a: SYPIWWSLAVGPQYSSLGSQPILCASIPGLVPKQLRFCRNYVEIMPSVAEGIKIGIQECQHQFRGRRWNCTTVHDSLAIFGPVLDKATRESAFVHAIASAGVAFAVTRSCAEGTAAICGCSSRHQGSPGKGWKWGGCSEDIEFGGMVSREFADARENRPDARSAMNRHNNEAGRQAIASHMHLKCKCHGLSGSCEVKTCWWSQPDFRAIGDFLKDKYDSASEMVVEKHRESRGWVETLRPRYTYFKVPTERDLVYYEASPNFCEPNPETGSFGTRDRTCNVSSHGIDGCDLLCCGRGHNARAERRREKCRCVFHWCCYVSCQECTRVYDVHTCK
For B1, the “effect of exogenous supplementation on ovarian cancer stem cells” value in assay [2] is listed as “detrimental”.
